Patent US4999359A, “Heterocyclic ethylene diamine compounds and their pharmaceutical compositions and methods” (Dr. Lo Zambeletti S.p.A., priority 1988, dated 1991)
Where a name gives a salt, the structure may show the parent alone. Read-outs that look alike come from different tables or passages of the source.

Key:
[1] = test system: mice (p-phenylquinone-induced abdominal writhing); test: P-phenylquinone-induced abdominal writhing test in mice; assay type: in vivo; details: Mus musculus, sc, p-phenylquinone i.p. 2 mg/Kg after 20 min pretreatment, calculated for the free base, read-out: ANALGESIA WRITHING ED50 (a)
Procedure: P-phenylquinone-induced abdominal writhing test in mice
The methodology employed is based on that described by Sigmund et al, Proc. Soc. Exptl. Biol. 95, 729/1957, modified by Milne and Twomey, Agents and Actions, 10, 31/1980.
Male Charles River mice (Swiss Strain), 25-36 g body weight, are used. Animals are allowed food and water ad libitum and are randomized into groups of 10 prior to experimentation. Test compounds are dissolved in either distilled water or distilled water plus 0.1M AMS, and administered by the subcutaneous route in a final volume of 10 ml/Kg. Control animals receive 10 ml/Kg of the appropriate vehicle alone. Following a pretreatment period of 20 min., mice are injected intraperitoneally with p-phenylquinone, 2 mg/Kg at 37° C. in a final volume of […]. Next, the mice are placed, in a groups of 3, in a compartmented perspex box maintained at room temperature and are observed for a period of 8 min. During this period the number of abdominal writhing responses per animal are recorded where writhing consists of an intermittent contraction of the abdomen associated with hind leg extension.
The degree of antinociceptive protection afforded by the test compound is determined as the mean number of writhing responses observed in the treated group (T) expressed as a percentage of the mean number of writhing responses in the control group (C) according to the following formula:
[1-(T/C)]×100%=% graded protection.

mice (tail-flick) = test: animal or person; assay type: in vivo; details: Mus musculus, sc, 0.5 h, read-out: ANALGESIA TAIL-FLICK ED50 (a)
kappa opioid receptors = target: T1, kappa opioid receptors (Cavia porcellus, UniProt P41144); test: biochemical; assay type: binding, guinea pig
T1 construct: fresh guinea pig brain homogenate; from tissue; host or cells: guinea pig whole brain without cerebellum, homogenate

μ opioid receptor = μ opioid receptor (Cavia porcellus, UniProt A0ACM8Q262); test: Binding to μ sites (3H-DAGO), receptor affinity study; parameters: species or system guinea pig
[2] = read-out: OPIATE RECEPTORS BINDING ki MU; guinea pig brain homogenate; 3H-DAGO; 40 min, 25° C.
[3] = read-out: OPIATE RECEPTORS BINDING ki MU

T1 sequence (P41144 whole entry): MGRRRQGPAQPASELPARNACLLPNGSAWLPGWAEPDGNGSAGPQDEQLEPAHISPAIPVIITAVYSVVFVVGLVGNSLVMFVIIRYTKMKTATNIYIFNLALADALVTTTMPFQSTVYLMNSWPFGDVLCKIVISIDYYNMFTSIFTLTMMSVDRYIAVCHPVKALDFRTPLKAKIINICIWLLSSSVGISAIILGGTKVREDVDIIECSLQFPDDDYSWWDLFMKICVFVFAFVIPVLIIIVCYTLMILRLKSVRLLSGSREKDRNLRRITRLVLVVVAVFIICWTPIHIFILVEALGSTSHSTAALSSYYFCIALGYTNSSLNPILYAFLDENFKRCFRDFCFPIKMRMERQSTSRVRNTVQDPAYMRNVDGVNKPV
μ opioid receptor, sequence (A0ACM8Q262 1-400): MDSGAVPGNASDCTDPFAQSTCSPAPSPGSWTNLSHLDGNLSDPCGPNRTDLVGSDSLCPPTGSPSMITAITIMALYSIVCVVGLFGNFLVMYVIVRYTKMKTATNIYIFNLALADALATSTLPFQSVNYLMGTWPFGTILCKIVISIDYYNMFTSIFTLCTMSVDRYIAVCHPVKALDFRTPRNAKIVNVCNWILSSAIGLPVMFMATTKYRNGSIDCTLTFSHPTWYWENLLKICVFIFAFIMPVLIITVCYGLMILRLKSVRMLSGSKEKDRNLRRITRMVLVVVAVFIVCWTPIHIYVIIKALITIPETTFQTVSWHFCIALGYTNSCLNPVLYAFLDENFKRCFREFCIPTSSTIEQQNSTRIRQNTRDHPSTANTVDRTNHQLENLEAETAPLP

Structure (SMILES): O=C(Cc1ccc(Cl)c(Cl)c1)N1CCc2sccc2C1CN1CCCC1 (single isomer, unassigned) [Example 9, (-)-4-(pyrrolidin-1-yl)methyl-5-(3,4-dichlorophenyl)acetyl-4,5,6,7-tetrahydrothieno[3,2-c]pyridine D(-) tartrate hemihydrate]
- ED50 [1]: 0.003 mg/kg
- ED50 (mice (tail-flick)): 0.007 mg/kg
- Ki (kappa opioid receptors): 1.07 nM
- Ki (μ opioid receptor; [2]): 47.2 nM

Structure (SMILES): O=C(Cc1ccc(Cl)c(Cl)c1)N1CCc2sccc2C1CN1CCCCC1 (single isomer, unassigned) [Example 10, (-)-4-(piperidin-1-yl)methyl-5-(3,4-dichlorophenyl)acetyl-4,5,6,7-tetrahydrothieno[3,2-c]pyridine L(+) tartrate hemihydrate]
- ED50 [1]: 0.01 mg/kg
- ED50 (mice (tail-flick)): 0.041 mg/kg
- Ki (μ opioid receptor; [3]): 500 nM

Structure (SMILES): O=C(Cc1ccc(C(F)(F)F)cc1)N1CCc2sccc2C1CN1CCCCC1 (single isomer, unassigned) [Example 13, (-)-4-(piperidin-1-yl)methyl-5-(4-trifluoromethylphenyl)acetyl-4,5,6,7-tetrahydrothieno[3,2-c]pyridine L(+) tartrate monohydrate]
- ED50 [1]: 0.01 mg/kg
- ED50 (mice (tail-flick)): 0.054 mg/kg
- Ki (μ opioid receptor; [2]): 468 nM

Structure (SMILES): CC(C1c2ccsc2CCN1C(=O)Cc1ccc(Cl)c(Cl)c1)N(C)C.Cl (single isomer, unassigned) [Example 18, 4-[1-(dimethylamino)ethyl]-5-(3,4-dichlorophenyl)acetyl-4,5,6,7-tetrahydrothieno[3,2-c]pyridine hydrochloride]
- ED50 [1]: 0.204 mg/kg
- ED50 (mice (tail-flick)): 0.824 mg/kg

Structure (SMILES): Cl.O.O=C(Cc1ccc(Cl)c(Cl)c1)N1CCc2sccc2C1CN1CCCC1 (stereo not shown) [Example 3, 4-(pyrrolidin-1-yl)methyl-5-(3,4-dichlorophenyl)acetyl-4,5,6,7-tetrahydrothieno[3,2-c]pyridine hydrochloride monohydrate]
- ED50 [1]: 0.004 mg/kg
- ED50 (mice (tail-flick)): 0.019 mg/kg
- Ki (kappa opioid receptors): 1.19 nM
- Ki (μ opioid receptor; [2]): 85 nM

Structure (SMILES): Cl.O=C(Cc1ccc(C(F)(F)F)cc1)N1CCc2sccc2C1CN1CCCC1 (stereo not shown) [Example 4, 4-(pyrrolidin-1-yl)methyl-5-(4-trifluoromethylphenyl)acetyl-4,5,6,7-tetrahydrothieno[3,2-c]pyridine hydrochloride]
- ED50 [1]: 0.004 mg/kg
- ED50 (mice (tail-flick)): 0.018 mg/kg
- Ki (kappa opioid receptors): 1.78 nM
- Ki (μ opioid receptor; [2]): 39.2 nM

Structure (SMILES): Cl.O=C(Cc1ccc(Cl)c(Cl)c1)N1CCc2sccc2C1CN1CCCCC1 (stereo not shown) [Example 5, 4-(piperidin-1-yl)methyl-5-(3,4-dichlorophenyl)acetyl-4,5,6,7-tetrahydrothieno[3,2-c]pyridine hydrochloride]
- ED50 [1]: 0.022 mg/kg
- ED50 (mice (tail-flick)): 0.09 mg/kg
- Ki (kappa opioid receptors): 1.29 nM
- Ki (μ opioid receptor; [2]): 781 nM

Structure (SMILES): CN(C)CC1c2ccsc2CCN1C(=O)Cc1ccc(Cl)c(Cl)c1.Cl (stereo not shown) [Example 6, 4-dimethylaminomethyl-5-(3,4-dichlorophenyl)acetyl-4,5,6,7-tetrahydrothieno[3,2-c]pyridine hydrochloride]
- ED50 (mice (tail-flick)): 0.042 mg/kg
- Ki (kappa opioid receptors): 1.75 nM
- Ki (μ opioid receptor; [2]): 607 nM

Structure (SMILES): CN(C)CC1c2ccsc2CCN1C(=O)Cc1ccc(C(F)(F)F)cc1 (stereo not shown) [Example 7, 4-dimethylaminomethyl-5-(4-trifluoromethylphenyl)acetyl-4,5,6,7-tetrahydrothieno[3,2-c]pyridine 1.5 hydrochloride 1/3 hydrate]
- ED50 (mice (tail-flick)): 0.093 mg/kg
- Ki (kappa opioid receptors): 3.46 nM
- Ki (μ opioid receptor; [3]): 513 nM

Structure (SMILES): O=C(Cc1ccc(C(F)(F)F)cc1)N1CCc2sccc2C1CN1CCCCC1 (stereo not shown) [Example 12, 4-(piperidin-1-yl)methyl-5-(4-trifluoromethylphenyl)acetyl-4,5,6,7-tetrahydrothieno[3,2-c]pyridine]
- ED50 [1]: 0.034 mg/kg
- ED50 (mice (tail-flick)): 0.09 mg/kg
- Ki (μ opioid receptor; [2]): 793 nM

Structure (SMILES): O=C(Cc1ccc(Cl)c(Cl)c1)N1CCc2[nH]c3ccccc3c2C1CN1CCCC1 (stereo not shown) [Example 15, 1-(pyrrolidin-1-yl)methyl-2-(3,4-dichlorophenyl)acetyl-1,2,3,4-tetrahydro-5H-pyrido[4,3-b]indole hydrochloride hemihydrate]
- ED50 [1]: > 10 mg/kg
- ED50 (mice (tail-flick)): > 10 mg/kg

Structure (SMILES): O=C(Cc1ccc(Cl)c(Cl)c1)N1CCc2[nH]c3ccccc3c2C1CN1CCCCC1 (stereo not shown) [Example 16, 1-(piperidin-1-yl)methyl-2-(3,4-dichlorophenyl)acetyl-1,2,3,4-tetrahydro-5H-pyrido[4,3-b]indole]
- ED50 [1]: > 10 mg/kg
- ED50 (mice (tail-flick)): > 10 mg/kg

Structure (SMILES): O=C(Cc1ccc2c(c1)CCCC2)N1CCc2sccc2C1CN1CCCCC1 (stereo not shown) [Example 19, 4-(piperidin-1-yl)methyl-5-(5,6,7,8-tetrahydronapht-2-yl) acetyl-4,5,6,7-tetrahydrothieno[3,2-c]pyridine hydrochloride hemihydrate]
- ED50 [1]: 0.092 mg/kg
- ED50 (mice (tail-flick)): 0.22 mg/kg

Structure (SMILES): O=C(Cc1ccc2c(c1)CCC2)N1CCc2sccc2C1CN1CCCCC1 (stereo not shown) [Example 20, 4-(piperidin-1-yl)methyl-5-(indan-5-yl)acetyl-4,5,6,7-tetrahydrothieno[3,2-c]pyridine hydrochloride 1/3 hydrate]
- ED50 [1]: 0.092 mg/kg
- ED50 (mice (tail-flick)): 0.412 mg/kg

Structure (SMILES): O=C(Cc1ccc2c(c1)CCCC2)N1CCc2sccc2C1CN1CCCC1 (stereo not shown) [Example 21, 4-(pyrrolidin-1-yl)methyl-5-(5,6,7,8-tetrahydronapht-2-yl) acetyl-4,5,6,7-tetrahydrothieno[3,2-c]pyridine hydrochloride]
- ED50 [1]: 0.022 mg/kg
- ED50 (mice (tail-flick)): 0.236 mg/kg
- Ki (μ opioid receptor; [2]): 56 nM

Structure (SMILES): Cl.O=C(Cc1ccc2c(c1)CCC2)N1CCc2sccc2C1CN1CCCC1 (stereo not shown) [Example 22, 4-(pyrrolidin-1-yl)methyl-5-(indan-5-yl)acetyl-4,5,6,7-tetrahydrothieno[3,2-c]pyridine hydrochloride]
- ED50 [1]: 0.014 mg/kg
- ED50 (mice (tail-flick)): 0.146 mg/kg
- Ki (μ opioid receptor; [2]): 104 nM

Structure (SMILES): O=C(Cc1ccc(Cl)c(Cl)c1)N1CCc2[nH]cnc2C1CN1CCCC1 (stereo not shown) [Example 23, 4-(pyrrolidin-1-yl)methyl-5-(3,4-dichlorophenyl)acetyl-4,5,6,7-tetrahydroimidazo[4,5-c]pyridine]
- ED50 (mice (tail-flick)): > 50 mg/kg
- Ki (μ opioid receptor; guinea pig brain homogenate; 3H-DAGO; 40 min, 25° C.; read-out: OPIATE RECEPTORS BINDING ki MU): > 1000 nM
